The source of these data is patent US9932349B2 (priority 2000, dated 2018).

“And” between values parts separate entries of the source, which are not always exact repeats. Equal values may be shown once. Read-outs that look alike come from different tables or passages of the source.

The target of experiment [1] is μ opioid receptor (Cavia porcellus, UniProt A0ACM8Q262). Type of experiment: binding, guinea pig.
For experiment [2], the system named is mice. The experiment can be described thus: mouse acetic acid writhing test (antinociceptive activity). Type of experiment: in vivo. The note with it: for duration of action (antinociception, mouse writhing test): 1.0 mg/kg i.p.; for ED50 in the mouse acetic acid writhing test: administered i.c.v.
In experiment [3] the target is T1, κ opioid receptor (Cavia porcellus, UniProt P41144).
T1 construct: determined in guinea pig brain cells; from tissue; host or cells: guinea pig brain
T1 sequence (P41144 whole entry): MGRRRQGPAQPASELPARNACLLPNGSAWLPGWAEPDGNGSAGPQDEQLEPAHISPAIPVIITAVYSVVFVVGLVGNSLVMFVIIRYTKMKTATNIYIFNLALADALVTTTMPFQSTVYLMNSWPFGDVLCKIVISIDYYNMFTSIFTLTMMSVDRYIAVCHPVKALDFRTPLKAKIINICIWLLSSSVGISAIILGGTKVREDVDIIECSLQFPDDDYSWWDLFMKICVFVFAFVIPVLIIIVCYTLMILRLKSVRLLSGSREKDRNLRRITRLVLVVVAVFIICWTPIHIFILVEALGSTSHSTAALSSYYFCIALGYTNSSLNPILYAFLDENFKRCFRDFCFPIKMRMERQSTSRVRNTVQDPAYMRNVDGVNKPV
Description: biochemical. Type of experiment: binding, guinea pig.

Experiment [4] has as its target T2, human κ opioid receptor (Homo sapiens, UniProt P41145).
T2 construct: expressed in transfected cells; host or cells: Chinese hamster ovary (CHO) cells
The experiment can be described thus: biochemical. Type of experiment: binding.

Experiment [5] concerns the target T3, human μ opioid receptor (Homo sapiens, UniProt P35372).
T3 construct: expressed in transfected cells; host or cells: Chinese hamster ovary (CHO) cells
The experiment can be described thus: biochemical. Type of experiment: binding.

Experiment [6] deals with T4, δ opioid receptor (Cavia porcellus, UniProt A0A286XTF2).
T4 construct: determined in guinea pig brain cells; from tissue; host or cells: guinea pig brain
T4 sequence (A0A286XTF2 1-366): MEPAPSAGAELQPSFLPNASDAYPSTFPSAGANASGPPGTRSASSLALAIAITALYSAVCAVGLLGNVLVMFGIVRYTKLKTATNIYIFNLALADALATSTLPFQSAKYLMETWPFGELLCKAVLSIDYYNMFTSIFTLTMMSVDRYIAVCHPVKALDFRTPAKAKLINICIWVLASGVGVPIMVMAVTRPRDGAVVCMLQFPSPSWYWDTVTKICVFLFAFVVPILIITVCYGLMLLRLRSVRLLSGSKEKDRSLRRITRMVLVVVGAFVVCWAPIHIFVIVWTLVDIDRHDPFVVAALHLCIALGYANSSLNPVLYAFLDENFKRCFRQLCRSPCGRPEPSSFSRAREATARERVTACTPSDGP
The experiment can be described thus: biochemical. Type of experiment: binding, guinea pig.

The target in experiment [7] is T5, human δ opioid receptor (Homo sapiens, UniProt P41143).
T5 construct: expressed in transfected cells; host or cells: Chinese hamster ovary (CHO) cells
T5 sequence (P41143 whole entry): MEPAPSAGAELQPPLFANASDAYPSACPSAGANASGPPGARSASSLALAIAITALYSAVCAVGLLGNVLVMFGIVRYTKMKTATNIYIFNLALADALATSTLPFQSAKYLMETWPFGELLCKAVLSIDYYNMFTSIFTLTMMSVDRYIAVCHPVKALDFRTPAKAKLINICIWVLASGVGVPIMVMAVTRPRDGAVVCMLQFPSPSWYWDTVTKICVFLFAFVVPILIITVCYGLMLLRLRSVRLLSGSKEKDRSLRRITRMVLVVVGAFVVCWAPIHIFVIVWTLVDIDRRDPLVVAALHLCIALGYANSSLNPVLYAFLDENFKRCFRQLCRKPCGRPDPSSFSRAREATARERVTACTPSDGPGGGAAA
The experiment can be described thus: binding to cloned human receptor in CHO cell membranes, [3H]Naltrindole. As to the method:
The affinities of the compounds of the invention were determined in guinea pig brain cells by the method described in Wentland et al. Biorgan. Med. Chem. Lett. 9. […] CHO cell membranes, expressing the human μ, δ, or κ opioid receptor, were incubated with 12 different concentrations of the compounds in the presence of receptor-specific radioligands at 25° C., in a final volume of 1 ml of 50 mM Tris-HCl, pH 7.5. Nonspecific binding was determined using 1 μM naloxone. Data are the mean value ±S.E.M. from three experiments, performed in triplicate.

T3 sequence (P35372 whole entry): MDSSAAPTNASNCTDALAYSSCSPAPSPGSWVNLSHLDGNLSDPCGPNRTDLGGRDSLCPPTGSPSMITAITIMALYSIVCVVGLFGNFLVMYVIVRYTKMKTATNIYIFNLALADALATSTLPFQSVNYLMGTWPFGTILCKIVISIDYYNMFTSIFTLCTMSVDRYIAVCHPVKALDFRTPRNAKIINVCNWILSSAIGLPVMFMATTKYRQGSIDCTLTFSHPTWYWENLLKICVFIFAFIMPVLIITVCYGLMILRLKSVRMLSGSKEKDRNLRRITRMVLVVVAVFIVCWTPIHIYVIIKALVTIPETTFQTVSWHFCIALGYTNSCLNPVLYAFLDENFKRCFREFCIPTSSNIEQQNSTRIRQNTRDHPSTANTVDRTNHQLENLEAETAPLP
Chain of μ opioid receptor (A0ACM8Q262 1-400): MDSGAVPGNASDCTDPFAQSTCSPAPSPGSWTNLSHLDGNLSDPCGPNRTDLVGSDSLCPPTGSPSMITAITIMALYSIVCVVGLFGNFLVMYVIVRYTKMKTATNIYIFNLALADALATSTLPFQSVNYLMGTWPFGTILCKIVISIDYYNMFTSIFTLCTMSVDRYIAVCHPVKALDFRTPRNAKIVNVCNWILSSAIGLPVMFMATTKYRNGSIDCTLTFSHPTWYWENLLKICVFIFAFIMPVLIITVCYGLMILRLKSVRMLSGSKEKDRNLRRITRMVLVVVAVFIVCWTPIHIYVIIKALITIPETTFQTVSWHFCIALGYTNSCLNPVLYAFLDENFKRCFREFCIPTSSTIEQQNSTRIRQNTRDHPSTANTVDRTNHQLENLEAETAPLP
T2 sequence (P41145 whole entry): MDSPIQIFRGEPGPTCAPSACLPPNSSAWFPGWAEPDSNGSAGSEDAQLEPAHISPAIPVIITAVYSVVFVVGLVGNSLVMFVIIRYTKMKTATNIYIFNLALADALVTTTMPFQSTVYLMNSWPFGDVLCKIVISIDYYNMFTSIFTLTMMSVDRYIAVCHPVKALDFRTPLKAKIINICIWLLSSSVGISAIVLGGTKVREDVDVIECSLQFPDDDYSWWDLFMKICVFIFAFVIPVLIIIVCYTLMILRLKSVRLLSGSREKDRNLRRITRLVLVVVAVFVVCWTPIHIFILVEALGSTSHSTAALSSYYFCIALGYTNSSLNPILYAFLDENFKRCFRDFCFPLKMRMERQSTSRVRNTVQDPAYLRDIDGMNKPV

On to “Cyclazocine [(±)-Cyclazocine, reference compound]”, for which, in experiment [1] (read-out: [3H] DAMGO (μ)), the Ki worked out at 0.32 ± 0.02 nM. Moreover, in experiment [2], the “duration of action (antinociception, mouse writhing test)” value is given as “ca. 2 hr” and the “ED50 in the mouse acetic acid writhing test” value was determined as 2.9 nmol.

`CC1C2C(=O)c3ccc(O)cc3[C@@]1(C)CCN2CC1CC1` (mixture of isomers) [(±)-ketocyclazocine, Ketocyclazocine, reference compound]: the Ki in experiment [3] ([3H] U69,593 (κ)) was 1 ± 0.24 nM; in experiment [4], 1 ± 0.019 nM; in experiment [5], 1.7 ± 0.21 nM; in experiment [6] ([3H] Naltrindole (δ)), 20 ± 2.7 nM; in experiment [7] it was 130 ± 14 nM.

As for `NC(=O)c1ccc2c3c1OC1C(=O)CCC4(O)C(C2)N(CC2CC2)CCC314` (centres unmarked) [Example 32], the Ki worked out at 22 ± 0.85 nM in experiment [3] (read-out: [3H] U69,593 (κ)), 1.9 ± 0.21 nM in experiment [1] (read-out: [3H] DAMGO (μ)) and 110 ± 8.1 nM in experiment [6] (read-out: [3H] Naltrindole (δ)).

With `CC1C2Cc3ccc(CC#N)cc3C1(C)CCN2CC1CC1` (centres unmarked) [Example 38], the Ki in experiment [4] came out at 2.9 ± 0.36 nM; in experiment [5], 3.3 ± 1.5 nM; in experiment [7] it was 2000 ± 685 nM.

In the case of `C[C@H]1C2Cc3ccc(C(N)=O)cc3[C@@]1(C)CCN2CC1CC1` (racemic) [Example 4, (±)-3-(Cyclopropylmethyl)-1,2,3,4,5,6-hexahydro-cis-6,11-dimethyl-2,6-methano-3-benzazocin-8-carboxamide], in experiment [2], the “duration of action (antinociception, mouse writhing test)” value was found to be 15 h and the “ED50 in the mouse acetic acid writhing test” value was 0.21 nmol. The Ki in experiment [6] (Ki [3H] Naltrindole (δ)) was 8.3 nM and 4.9 nM.

As to `N#Cc1ccc2c(c1O)[C@]13CCN(CC4CCC4)[C@H](C2)[C@]1(O)CCC(=O)C3` [Example 43], the Ki amounted to 2.6 ± 0.21 nM in experiment [4], 0.35 ± 0.092 nM in experiment [5] and 82 ± 24 nM in experiment [7].

Take `CC1C2Cc3ccc(NC(N)=S)cc3C1(C)CCN2CC1CC1` (racemic) [Example 37]: the Ki in experiment [4] (read-out: Ki [3H] U69,593 (κ)) was found to be 4 ± 0.54 nM; in experiment [5] (read-out: Ki [3H] DAMGO (μ)), 10 ± 1.7 nM; in experiment [7] (read-out: Ki [3H] Naltrindole (δ), Table 1, footnote a: chinese hamster ovary rather than guinea pig brain) it was 440 ± 72 nM.

With `CC1C2Cc3ccc(C=NO)cc3C1(C)CCN2CC1CC1` (centres unmarked) [Example 39], the Ki in experiment [4] was found to be 0.73 ± 0.03 nM; in experiment [5] it was 18 ± 1.8 nM; in experiment [7], 140 ± 15 nM.

`CC1C2Cc3ccc(NC(N)=O)cc3C1(C)CCN2CC1CC1` (racemic) [Example 36]: the Ki in experiment [3] (read-out: Ki [3H] U69,593 (κ)) was 15 ± 1.4 nM; in experiment [1] (read-out: Ki [3H] DAMGO (μ)), 20 ± 0.66 nM; in experiment [6] (read-out: Ki [3H] Naltrindole (δ)), 90 ± 12 nM.

With `CCOC(=O)c1ccc2c3c1OC1C(=O)CCC4(O)C(C2)N(CC2CC2)CCC314` (centres unmarked) [Example 33], the Ki in experiment [3] (read-out: [3H] U69,593 (κ)) came out at 16 ± 0.7 nM; in experiment [1] (read-out: [3H] DAMGO (μ)) it was 24 ± 1.7 nM; in experiment [6] (read-out: [3H] Naltrindole (δ)), 970 ± 155 nM.

In the case of `Oc1ccc2c(c1)C13CCCCC1(O)C(C2)N(CC1CCC1)CC3` (centres unmarked) [butorphanol, Butorphanol, reference compound], the values for the Ki in experiment [4] and in experiment [7] were 0.22 ± 0.023 nM and 12 ± 3.8 nM, respectively.

In the case of `CC1C2Cc3ccc(C(=O)NCCN(C)C)cc3C1(C)CCN2CC1CC1` (centres unmarked) [Example 11], the Ki in experiment [3] (Ki [3H] U69,593 (κ)) came out at 44 ± 11 nM; in experiment [6] (Ki [3H] Naltrindole (δ)), 350 ± 51 nM.

As to `CC1C2Cc3ccc(O)cc3C1(C)CCN2CC1CCCO1` (single isomer, unassigned) [Example 27, reference compound], the Ki in experiment [3] ([3H] U69,593 (κ)) is 1.5 ± 0.07 nM; in experiment [6] ([3H] Naltrindole (δ)), 67 ± 4.3 nM.
